Like-named read-outs stand apart in the source and are kept apart here.
What was measured:
[1] = target: full length recombinant Pim-1 (Homo sapiens (Human), UniProt P11309); test: Pim enzyme assay (HTRF, phosphorylation of biotinylated-BAD (S112) peptide), Pim-1; format: biochemical; details: read-out: Pim_1_IC50
[2] = target: full length recombinant Pim-3 (Homo sapiens (Human), UniProt Q86V86); test: Pim enzyme assay (HTRF, phosphorylation of biotinylated-BAD (S112) peptide), Pim-3; format: biochemical; details: Pim-3 enzyme assay; read-out: Pim3 IC50
Excerpt: Pim-3 was purchased from Millipore (UK).
The phosphorylation of biotinylated-BAD (S112) peptide by full length recombinant Pim-1, Pim-2, or Pim-3 protein was detected with streptavidin:Allophycocyanin (APC) conjugate and a europium (Eu) labeled antibody directed against phosphorylated-BAD (S112). […] The fluorescence is directly proportional to the amount of phosphorylated BAD peptide present in the reaction.
A reference compound was included on each assay plate in order to validate that plate; on one plate of every assay run, two additional reference compounds were included.
The final buffer conditions were as follows: 60 mM Hepes, pH 7.0, 0.05% BSA, 2 mM DTT. Incubations were carried out at RT (22° C.) for 2 h for Pim-1, 1 h and 30 min for Pim-3, and 45 min for Pim-2. The reaction was then stopped by the addition of 3 mM EDTA, and fluorescence was measured by an HTRF® Rubystar microplate reader. For each plate, percent of control (POC) values were calculated for each well. Values for the IC50 IP were estimated using a standard 4-parameter logistic model.

[3] = target: full length recombinant Pim-2 (Homo sapiens (Human), UniProt Q9P1W9); test: Pim enzyme assay (HTRF, phosphorylation of biotinylated-BAD (S112) peptide), Pim-2; format: biochemical; details: Pim-2 enzyme assay; read-out: Pim2_IC50
full length recombinant Pim-2, sequence (Q9P1W9 whole entry): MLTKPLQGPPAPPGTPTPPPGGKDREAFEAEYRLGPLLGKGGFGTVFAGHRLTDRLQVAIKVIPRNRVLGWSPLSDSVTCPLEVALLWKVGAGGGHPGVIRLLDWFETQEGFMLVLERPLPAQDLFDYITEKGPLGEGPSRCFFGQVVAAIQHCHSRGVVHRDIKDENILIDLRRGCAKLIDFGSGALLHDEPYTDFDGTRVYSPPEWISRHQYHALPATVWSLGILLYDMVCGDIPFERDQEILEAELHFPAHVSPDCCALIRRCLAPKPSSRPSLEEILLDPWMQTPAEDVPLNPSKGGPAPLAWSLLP

[4] = system: Pim-1 stably transfected U2OS human osteogenic sarcoma line; test: Pim cell assay U2OS (phospho-BAD normalized against total BAD), Pim-1 transfected; format: cell-based; details: read-out: U2OS Pim1_Cell_IC50, U2OS cells, Pim-1 transfected
Method: The cell lines used in the assay were generated by the stable transfection of either Pim-1 or Pim-2 into the U2OS human osteogenic sarcoma line. The assay for determination of the Pim activity in the engineered U2OS cell lines measures levels of phospho-BAD normalized against total BAD protein levels. It was conducted as follows:
The adherent cells were dissociated from the flasks using non-enzymatic cell dissociation solution (Sigma #C5914). […] The cells were then incubated overnight at 37° C., 5% CO2.
In addition to the 10-point dosing curve of the test compound, DMSO alone was run as the high control.
This dilution in DMSO was then diluted again into cell growth medium. Aliquots (12 μL) of the compound diluted in growth medium were then transferred to the appropriate wells of the 96-well plates containing cells to a final DMSO concentration of 0.3%. The cell plates were then incubated with compound for 29 min at 37° C., 5% CO2.
The cell plates containing lysis buffer were then immediately stored at −70° C.
These prepared lysates were then assayed for phospho and total BAD according to the manufacturer's protocols (Meso Scale Diagnostics, Cat#K15103C-3 & #K15103D-3). The plates were read on the MSD Sector Imager 6000, and results were calculated according to the assay protocols ((% Phosphoprotein=((2×Phospho signal)/(Phospho signal+Total signal))×100)).

full length recombinant Pim-1, sequence (P11309 whole entry): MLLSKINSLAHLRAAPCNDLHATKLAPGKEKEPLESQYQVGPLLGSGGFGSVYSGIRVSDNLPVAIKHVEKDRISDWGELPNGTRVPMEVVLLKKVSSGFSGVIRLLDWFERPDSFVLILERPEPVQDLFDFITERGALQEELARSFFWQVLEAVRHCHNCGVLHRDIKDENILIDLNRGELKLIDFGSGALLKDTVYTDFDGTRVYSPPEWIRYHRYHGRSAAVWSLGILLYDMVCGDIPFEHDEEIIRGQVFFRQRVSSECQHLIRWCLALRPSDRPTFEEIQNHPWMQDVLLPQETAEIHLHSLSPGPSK

Structure (SMILES): Nc1nnc(-c2ccc3[nH]cc(-c4cnc(N5CCOCC5)cn4)c3c2)s1 [Example 192, 5-(3-(5-(4-morpholinyl)-2-pyrazinyl)-1H-indol-5-yl)-1,3,4-thiadiazol-2-amine]
- IC50 ([1]; Pim-1 enzyme assay): 908 nM
- IC50 [2]: 266 nM
- IC50 [3]: 2400 nM

Structure (SMILES): Nc1nnc(-c2ccc3[nH]cc(-c4c(F)cccc4F)c3c2)s1 [Example 138, 5-(3-(2,6-difluorophenyl)-1H-indol-5-yl)-1,3,4-thiadiazol-2-amine]
- IC50 ([1]; Pim-1 enzyme assay): 199 nM
- IC50 [2]: 96.7 nM
- IC50 [3]: 348 nM

Structure (SMILES): CC(C)(Nc1nnc(-c2ccc3[nH]cc(-c4ncccn4)c3c2)o1)c1ccccc1 [Example 52, N-(2-phenylpropan-2-yl)-5-(3-(pyrimidin-2-yl)-1H-indol-5-yl)-1,3,4-oxadiazol-2-amine 2,2,2-trifluoroacetate]
- IC50 ([1]; Pim-1 enzyme assay): 70.1 nM
- IC50 [2]: 40.3 nM
- IC50 [3]: 271 nM

Structure (SMILES): Nc1cc(-c2c[nH]c3ccc(-c4nnc(N)s4)cc23)ccn1 [Example 186, 4-(5-(5-amino-1,3,4-thiadiazol-2-yl)-1H-indol-3-yl)-2-pyridinamine]
- IC50 ([1]; Pim-1 enzyme assay): 260 nM
- IC50 [2]: 83.8 nM
- IC50 [3]: 270 nM

Structure (SMILES): Nc1nnc(-c2ccc3[nH]cc(-c4cccc(N5CCCC5)n4)c3c2)s1 [Example 14, 5-(3-(6-(pyrrolidin-1-yl)pyridin-2-yl)-1H-indol-5-yl)-1,3,4-thiadiazol-2-amine]
- IC50 [1]: 11.1 nM
- IC50 [3]: 42 nM
- IC50 [4]: 159 nM

Structure (SMILES): CC(Nc1nnc(-c2ccc3[nH]cc(-c4ccccn4)c3c2)o1)c1ccccc1 (stereo not drawn) [Example 267, N-(1-phenylethyl)-5-(3-(2-pyridinyl)-1H-indol-5-yl)-1,3,4-oxadiazol-2-amine]
- IC50 ([1]; Pim-1 enzyme assay): 97.2 nM
- IC50 [2]: 56.1 nM
- IC50 [3]: 231 nM

Structure (SMILES): CNc1nnc(-c2ccc3[nH]cc(-c4ccc(-c5cccs5)s4)c3c2)s1 [Example 241, 5-(3-(2,2′-bithiophen-5-yl)-1H-indol-5-yl)-N-methyl-1,3,4-thiadiazol-2-amine]
- IC50 ([1]; Pim-1 enzyme assay): 2180 nM
- IC50 [2]: 414 nM
- IC50 [3]: > 10000 nM

Structure (SMILES): Nc1nnc(-c2ccc3[nH]cc(-c4cccc(N5CCCC5)n4)c3c2)s1 [Example 176, 5-(3-(6-(1-pyrrolidinyl)-2-pyridinyl)-1H-indol-5-yl)-1,3,4-thiadiazol-2-amine]
- IC50 [1]: 43.5 nM
- IC50 [3]: 104 nM
- IC50 [4]: 526 nM

Structure (SMILES): CC(=O)Nc1cccc(CNc2nnc(-c3ccc4[nH]cc(-c5ccccc5F)c4c3)s2)c1 [Example 145, N-(3-(((5-(3-(2-fluorophenyl)-1H-indol-5-yl)-1,3,4-thiadiazol-2-yl)amino)methyl)phenyl)acetamide]
- IC50 ([1]; Pim-1 enzyme assay): 308 nM
- IC50 [2]: 308 nM
- IC50 [3]: 2170 nM

Structure (SMILES): CNc1nnc(-c2ccc3[nH]cc(-c4cccc(N)c4)c3c2)s1 [Example 221, 5-(3-(3-aminophenyl)-1H-indol-5-yl)-N-methyl-1,3,4-thiadiazol-2-amine]
- IC50 ([1]; Pim-1 enzyme assay): 744 nM
- IC50 [2]: 158 nM
- IC50 [3]: 1490 nM

Structure (SMILES): Nc1nnc(-c2ccc3[nH]cc(-c4cccc(OC5CCCCC5)n4)c3c2)s1 [Example 173, 5-(3-(6-(cyclohexyloxy)-2-pyridinyl)-1H-indol-5-yl)-1,3,4-thiadiazol-2-amine]
- IC50 ([1]; Pim-1 enzyme assay): 40.5 nM
- IC50 [3]: 114 nM
- IC50 ([4]; Homo sapiens): 1020 nM

Structure (SMILES): Nc1nnc(-c2ccc3[nH]cc(-c4cncc(Oc5ccccc5)n4)c3c2)o1 [Example 92, 5-(3-(6-phenoxy-2-pyrazinyl)-1H-indol-5-yl)-1,3,4-oxadiazol-2-amine]
- IC50 ([1]; Pim-1 enzyme assay): 25.9 nM
- IC50 [2]: 12.3 nM
- IC50 [3]: 46.6 nM

Structure (SMILES): Nc1nnc(-c2ccc3[nH]cc(-c4cnc(N5CCCC5)cn4)c3c2)s1 [Example 189, 5-(3-(5-(1-pyrrolidinyl)-2-pyrazinyl)-1H-indol-5-yl)-1,3,4-thiadiazol-2-amine]
- IC50 ([1]; Pim-1 enzyme assay): 564 nM
- IC50 [2]: 73.2 nM
- IC50 [3]: 690 nM

— patent US9321756B2, “Azole compounds as PIM inhibitors” (priority 2011, dated 2016)
